Assay results from US20100267561A1, “HERBICIDAL PYRIDAZINONE DERIVATIVES” (priority 2007, published 2010).

Tests used:
Test in all cases: Test B pre-/postemergence plant response
Type in all cases: in vivo
[1] = tested on: bermudagrass (Cynodon dactylon); details: for Bermudagrass plant response rating: 8 g ai/ha
In short: (§1)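 Preemergence and postemergence (plants 2-18 cm, 1- to 4-leaf stage) applications used test chemicals in a non-phytotoxic solvent with surfactant. Plants were held in a greenhouse 13 to 15 days, then rated visually against controls on a 0-100 scale (0 no effect, 100 complete control).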

[2] = tested on: johnsongrass (Sorghum halepense); details: for Johnsongrass plant response rating: 8 g ai/ha
In short: as §1

[3] = tested on: morningglory (Ipomoea coccinea); details: for Morningglory plant response rating: 8 g ai/ha
In short: as §1

[4] = tested on: surinam grass (Brachiaria decumbens); details: for Surinam Grass plant response rating: 8 g ai/ha
In short: as §1

[5] = tested on: eastern black (E.B.) nightshade (Solanum ptycanthum); details: Preemergence
In short: as §1

[6] = tested on: yellow nutsedge (Cyperus esculentus); details: for Nutsedge, Yellow plant response rating: 8 g ai/ha
In short: as §1

[7] = tested on: blackgrass (Alopecurus myosuroides); details: for Blackgrass plant response rating: 8 g ai/ha
In short: as §1

[8] = tested on: corn (Zea mays); details: for Corn plant response rating: 8 g ai/ha
In short: as §1

[9] = tested on: giant foxtail (Setaria faberii); details: for Foxtail, Giant plant response rating: 8 g ai/ha
In short: as §1

[10] = tested on: Italian ryegrass (Lolium multiflorum); details: for Ryegrass, Italian plant response rating: 8 g ai/ha
In short: as §1

[11] = tested on: lambsquarters (Chenopodium album); details: for Lambsquarters plant response rating: 8 g ai/ha
In short: as §1

[12] = tested on: wild oat (Avena fatua); details: for Oat, Wild plant response rating: 8 g ai/ha
In short: as §1

[13] = tested on: common ragweed (Ambrosia elation); details: for Ragweed plant response rating: 8 g ai/ha
In short: as §1

[14] = tested on: kochia (Kochia scoparia); details: for Kochia plant response rating: 8 g ai/ha
In short: as §1

[15] = Postemergence, 16 g ai/ha, scale 0 to 100
[16] = Postemergence, 31 g ai/ha, scale 0 to 100, 0 no effect, 100 complete control
[17] = Postemergence, 62 g ai/ha, scale 0 to 100, 0 no effect, 100 complete control
[18] = Preemergence, 16 g ai/ha, scale 0 to 100 (0 no effect, 100 complete control)
[19] = Preemergence, 31 g ai/ha, 0 to 100 scale, 0 no effect, 100 complete control
[20] = Preemergence, 62 g ai/ha, scale 0 to 100
[21] = Preemergence, 31 g ai/ha, scale 0 to 100 (0 no effect, 100 complete control)

For `Cc1cc(-c2ccc(C(F)(F)F)c(F)c2)nn1-c1c(O)c(C(F)(F)F)nn(C)c1=O` [Compound 44], the “Bermudagrass plant response rating” value ([1]; postemergence, 0-100 scale) was 65, the “Plant response rating, Bermudagrass” value [1, 15] was 90 and the “Plant response rating, Bermudagrass” value [1, 16] was 95. The “Plant response rating, Bermudagrass” value [1, 17] was 100, the “Bermudagrass plant response rating” value ([1]; Preemergence, scale 0 to 100 (0 no effect, 100 complete control)) was 0 and the “Plant response rating, Bermudagrass” value [1, 18] was 0. The “Plant response rating, Bermudagrass” value [1, 19] was 0, the “Plant response rating, Bermudagrass” value [1, 20] was 0 and the “Johnsongrass plant response rating” value ([2]; postemergence, 0-100 scale) was 55. The “Plant response rating, Johnsongrass” value [2, 15] was 95, the “Plant response rating, Johnsongrass” value [2, 16] was 98 and the “Plant response rating, Johnsongrass” value [2, 17] was 100. For the same molecule, the “Plant response rating, Johnsongrass” value [2, 18] was 0, the “Plant response rating, Johnsongrass” value [2, 19] was 0 and the “Plant response rating, Johnsongrass” value [2, 20] was 95. For the same molecule, the “Johnsongrass plant response rating” value ([2]; Preemergence, scale 0 to 100) was 0, the “Morningglory plant response rating” value ([3]; postemergence, 0-100 scale) was 0 and the “Plant response rating, Morningglory” value [3, 15] was 0. For the same molecule, the “Plant response rating, Morningglory” value [3, 16] was 0, the “Plant response rating, Morningglory” value [3, 17] was 0 and the “Plant response rating, Morningglory” value [3, 18] was 0. For the same molecule, the “Plant response rating, Morningglory” value [3, 20] was 0, the “Morningglory plant response rating” value ([3]; Preemergence, scale 0 to 100) was 0 and the “Surinam Grass plant response rating” value ([4]; postemergence, 0-100 scale) was 98. The “Plant response rating, Surinam Grass” value [4, 15] was 100, the “Plant response rating, Surinam Grass” value [4, 17] was 100 and the “Plant response rating, Surinam Grass” value [4, 18] was 0. The “Plant response rating, Surinam Grass” value [4, 21] was 0, the “Plant response rating, Surinam Grass” value ([4]; Preemergence, 62 g ai/ha, 0 to 100 scale, 0 no effect, 100 complete control) was 20 and the “Surinam Grass plant response rating” value ([4]; Preemergence, scale 0 to 100) was 0. The “Plant response rating, Nightshade, E. B.” value ([5]; 16 g ai/ha, scale 0 to 100 (0 no effect, 100 complete control)) was 0, the “Plant response rating, Nightshade, E. B.” value ([5]; 31 g ai/ha, scale 0 to 100 (0 no effect, 100 complete control)) was 0 and the “Plant response rating, Nightshade, E. B.” value ([5]; 62 g ai/ha, scale 0 to 100) was 55. The “Nightshade, E. B. plant response rating” value ([5]; 8 g ai/ha, scale 0 to 100) was 0, the “Nutsedge, Yellow plant response rating” value ([6]; postemergence, 0-100 scale) was 0 and the “Plant response rating, Nutsedge, Yellow” value [6, 15] was 0. The “Plant response rating, Nutsedge, Yellow” value [6, 16] was 0, the “Plant response rating, Nutsedge, Yellow” value [6, 17] was 0 and the “Plant response rating, Nutsedge, Yellow” value [6, 18] was 0. For the same molecule, the “Plant response rating, Nutsedge, Yellow” value [6, 21] was 0, the “Plant response rating, Nutsedge, Yellow” value [6, 20] was 0 and the “Nutsedge, Yellow plant response rating” value ([6]; Preemergence, scale 0 to 100) was 0. The “Blackgrass plant response rating” value ([7]; postemergence, 0-100 scale) was 85, the “Plant response rating, Blackgrass” value [7, 15] was 90 and the “Plant response rating, Blackgrass” value [7, 16] was 98. For the same molecule, the “Plant response rating, Blackgrass” value [7, 17] was 98, the “Plant response rating, Blackgrass” value [7, 18] was 100 and the “Plant response rating, Blackgrass” value [7, 19] was 100. The “Plant response rating, Blackgrass” value [7, 20] was 100, the “Blackgrass plant response rating” value ([7]; Preemergence, scale 0 to 100) was 90 and the “Corn plant response rating” value ([8]; postemergence, 0-100 scale) was 85. The “Plant response rating, Corn” value [8, 15] was 95, the “Plant response rating, Corn” value [8, 16] was 95 and the “Plant response rating, Corn” value [8, 17] was 95. The “Plant response rating, Corn” value [8, 18] was 55, the “Plant response rating, Corn” value [8, 19] was 65 and the “Plant response rating, Corn” value [8, 20] was 85. For the same molecule, the “Corn plant response rating” value ([8]; Preemergence, scale 0 to 100) was 0, the “Foxtail, Giant plant response rating” value ([9]; postemergence, 0-100 scale) was 95 and the “Plant response rating, Foxtail, Giant” value [9, 15] was 98. The “Plant response rating, Foxtail, Giant” value [9, 16] was 100, the “Plant response rating, Foxtail, Giant” value [9, 17] was 100 and the “Plant response rating, Foxtail, Giant” value [9, 18] was 0. For the same molecule, the “Plant response rating, Foxtail, Giant” value [9, 19] was 0, the “Plant response rating, Foxtail, Giant” value [9, 20] was 0 and the “Foxtail, Giant plant response rating” value ([9]; Preemergence, scale 0 to 100) was 0. The “Ryegrass, Italian plant response rating” value ([10]; postemergence, 0-100 scale) was 90, the “Plant response rating, Ryegrass, Italian” value [10, 15] was 95 and the “Plant response rating, Ryegrass, Italian” value [10, 16] was 100. For the same molecule, the “Plant response rating, Ryegrass, Italian” value [10, 17] was 100, the “Plant response rating, Ryegrass, Italian” value [10, 18] was 90 and the “Plant response rating, Ryegrass, Italian” value [10, 21] was 90. The “Plant response rating, Ryegrass, Italian” value [10, 20] was 100, the “Ryegrass, Italian plant response rating” value ([10]; Preemergence, scale 0 to 100) was 20 and the “Lambsquarters plant response rating” value ([11]; postemergence, 0-100 scale) was 0. The “Plant response rating, Lambsquarters” value [11, 15] was 0, the “Plant response rating, Lambsquarters” value [11, 16] was 0 and the “Plant response rating, Lambsquarters” value [11, 17] was 0. The “Plant response rating, Lambsquarters” value [11, 18] was 0, the “Plant response rating, Lambsquarters” value [11, 19] was 0 and the “Plant response rating, Lambsquarters” value [11, 20] was 0. The “Lambsquarters plant response rating” value ([11]; Preemergence, scale 0 to 100) was 0, the “Oat, Wild plant response rating” value ([12]; postemergence, 0-100 scale) was 90 and the “Plant response rating, Oat, Wild” value [12, 15] was 95. The “Plant response rating, Oat, Wild” value [12, 16] was 100, the “Plant response rating, Oat, Wild” value [12, 17] was 100 and the “Plant response rating, Oat, Wild” value [12, 18] was 80. The “Plant response rating, Oat, Wild” value [12, 21] was 85, the “Plant response rating, Oat, Wild” value [12, 20] was 90 and the “Oat, Wild plant response rating” value ([12]; Preemergence, scale 0 to 100) was 25. The “Ragweed plant response rating” value ([13]; postemergence, 0-100 scale) was 0, the “Plant response rating, Ragweed” value [13, 15] was 0 and the “Plant response rating, Ragweed” value [13, 16] was 0. For the same molecule, the “Plant response rating, Ragweed” value [13, 17] was 0, the “Plant response rating, Ragweed” value [13, 18] was 0 and the “Plant response rating, Ragweed” value [13, 21] was 0. The “Plant response rating, Ragweed” value [13, 20] was 20, the “Ragweed plant response rating” value ([13]; Preemergence, scale 0 to 100) was 0 and the “Kochia plant response rating” value ([14]; postemergence, 0-100 scale) was 0. The “Plant response rating, Kochia” value [14, 15] was 0, the “Plant response rating, Kochia” value [14, 16] was 0 and the “Plant response rating, Kochia” value [14, 17] was 0. The “Plant response rating, Kochia” value [14, 18] was 0, the “Plant response rating, Kochia” value [14, 19] was 0 and the “Plant response rating, Kochia” value [14, 20] was 100. For the same molecule, the “Kochia plant response rating” value ([14]; Preemergence, scale 0 to 100) was 0.
